The record followed here is US20230365652A1, “Nucleic Acid Constructs, Viral Vectors and Viral Particles” (priority 2020, published 2023).

The target of this test is T1, GAT-1 (Homo sapiens, UniProt P30531).
T1 construct: expressed in transfected cells; host or cells: SH-SY5Y (human neuroblastoma cell line), transient transfection with Lipofectamine 3000
The test can be described thus: Tritiated [3H]GABA uptake assay in transfected SH-SY5Y cells. As to conditions: CI-966 100 μM in 0.8% DMSO, 10 min at 37° C. It is filed as cell-based. The text has this: SH-SY5Y cells (human neuroblastoma cell line) were transfected with the constructs as described in Example 1 using Lipofectamine 3000 and following manufacturer instructions. The positive control consisted of a plasmid encoding hSLC6A1 under the control of a CAG promoter expressed together with a tagRFP fluorescent protein whilst as negative control (and a matching plasmid lacking the hSLC6A1 sequence. At 2 days post transfection, SH-SY5Y cells were attested for either ICC analysis of GABA uptake assay. Briefly, ICC analysis was performed as follow: cells were fixed with 4% paraformaldehyde and stained with the primary antibodies rabbit monoclonal anti-GAT-1 (Ref: ab177483; Abcam™, Cambridge, MA, USA) at 1:250. Cells were then stained with goat anti-rabbit secondary antibodies conjugated to Alexa Fluor 488 at 1:1,000 prior to imaging. For the GABA uptake assay, cells were previously seeded on scintillating microplates. […] Cells were then treated with a mixture of tritiated and cold GABA ([3H]GABA 8 μCi/ml and 15 μM GABA final concentrations) for 10 min at 37° C. and the reaction was stopped using 1 mM cold GABA before quantification of the radioactivity with a Microbeta instrument (Perkin Elmer).

Structures are written as SMILES.

T1 sequence (P30531 whole entry): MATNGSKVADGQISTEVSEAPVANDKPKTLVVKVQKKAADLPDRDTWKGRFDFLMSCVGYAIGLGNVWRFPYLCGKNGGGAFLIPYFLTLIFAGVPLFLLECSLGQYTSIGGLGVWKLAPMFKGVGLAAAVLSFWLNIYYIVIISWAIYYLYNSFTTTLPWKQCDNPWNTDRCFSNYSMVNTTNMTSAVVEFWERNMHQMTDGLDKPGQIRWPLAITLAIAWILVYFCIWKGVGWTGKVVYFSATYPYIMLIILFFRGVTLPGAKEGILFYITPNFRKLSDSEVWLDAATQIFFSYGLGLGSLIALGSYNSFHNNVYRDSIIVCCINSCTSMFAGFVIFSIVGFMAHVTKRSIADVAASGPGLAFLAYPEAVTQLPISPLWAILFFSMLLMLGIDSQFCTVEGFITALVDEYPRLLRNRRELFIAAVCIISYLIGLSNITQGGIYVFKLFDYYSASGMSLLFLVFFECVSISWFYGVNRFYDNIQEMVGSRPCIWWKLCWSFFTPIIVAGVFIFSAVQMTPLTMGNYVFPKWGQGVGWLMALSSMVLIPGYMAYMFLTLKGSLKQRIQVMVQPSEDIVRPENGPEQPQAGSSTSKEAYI

On to `O=C(O)C1=CCCN(CCOC(c2ccc(C(F)(F)F)cc2)c2ccc(C(F)(F)F)cc2)C1` [GAT-1 inhibitor], for which the “uptake of [3H]GABA when cells treated with inhibitor” value is “inhibited”.
